{"source": "patent US20100016225A1", "about": "“CONJUGATES COMPRISED OF POLYMER AND HIV gp-41-DERIVED PEPTIDES AND THEIR USE IN THERAPY” (Trimeris, Inc., priority 2002, published 2010)", "key": {"HIV-1 T20S-C": {"test_system": "HIV-1 T20S-C", "format": "cell-based", "settings": "virus HIV-1 T20S-C", "source_text": "(§1) Illustrated in this example is the unexpected result of antiviral potency using the conjugates according to the present invention. […] In determining antiviral activity (e.g., one measure being the ability to inhibit transmission of HIV to a target cell) of the conjugates according to the present invention, used was an in vitro assay which has been shown, by data generated using synthetic peptides derived from either of the HR regions of HIV gp41, to be predictive of antiviral activity observed in vivo.\n(§2) The infectivity assays score for reduction of infectious virus titer employing the indicator cell lines MAGI or the CCR5 expressing derivative cMAGI. Both cell lines exploit the ability of HIV-1 that to transactivate the expression of a β-galactosidase reporter gene driven by the HIV-LTR. The β-gal reporter has been modified to localize in the nucleus and can be detected with the X-gal substrate as intense nuclear staining within a few days of infection. The number of stained nuclei can thus be interpreted as equal to the number of infectious virions in the challenge inoculum if there is only one round of infection prior to staining. Infected cells are enumerated using a CCD-imager and both primary and laboratory adapted isolates show a linear relationship between virus input and the number of infected cells visualized by the imager. […] Peptides tested for antiviral activity were diluted into various concentrations, and tested in duplicate or triplicate against an HIV inoculum adjusted to yield approximately 1500-2000 infected cells/well of a 48 well microtiter plate. The peptide (in the respective dilution) was added to the CMAGI or MAGI cells, followed by the virus inocula; and 24 hours later, an inhibitor of infection and cell-cell fusion (e.g., T20) was added to prevent secondary rounds of HIV infection and cell-cell virus spread. The cells were cultured for 2 more days, and then fixed and stained with the X-gal substrate to detect HIV-infected cells. The number of infected cells for each control and peptide dilution was determined with the CCD-imager, and then the IC50 and IC90 were calculated (expressed in μg/ml).\n(§3) IC50 and IC90 are expressed in μg/ml."}, "HIV-1 T20S-A": {"test_system": "HIV-1 T20S-A", "format": "cell-based", "settings": "virus HIV-1 T20S-A", "source_text": "as §1, §2, §3"}, "HIV-1 T20S-D": {"test_system": "HIV-1 T20S-D", "format": "cell-based", "settings": "virus HIV-1 T20S-D", "source_text": "as §1, §2, §3"}, "HIV-1 T20R-A": {"test_system": "HIV-1 T20R-A", "format": "cell-based", "settings": "virus HIV-1 T20R-A", "source_text": "as §1, §2, §3"}, "HIV-1 T20S-B": {"test_system": "HIV-1 T20S-B", "format": "cell-based", "settings": "virus HIV-1 T20S-B", "source_text": "as §1, §2, §3"}, "HIV-1 T20R-D": {"test_system": "HIV-1 T20R-D", "format": "cell-based", "settings": "virus HIV-1 T20R-D", "source_text": "as §1, §2, §3"}, "HIV-1 T20R-C": {"test_system": "HIV-1 T20R-C", "format": "cell-based", "settings": "virus HIV-1 T20R-C", "source_text": "as §1, §2, §3"}, "HIV-1 T20R": {"test_system": "HIV-1 T20R", "format": "cell-based", "settings": "T20-resistant clinical isolate, Table 2", "source_text": "(§4) The infectivity assays score for reduction of infectious virus titer employing the indicator cell lines MAGI or the CCR5 expressing derivative cMAGI. Both cell lines exploit the ability of HIV-1 that to transactivate the expression of a β-galactosidase reporter gene driven by the HIV-LTR. The β-gal reporter has been modified to localize in the nucleus and can be detected with the X-gal substrate as intense nuclear staining within a few days of infection. The number of stained nuclei can thus be interpreted as equal to the number of infectious virions in the challenge inoculum if there is only one round of infection prior to staining. […] The peptide (in the respective dilution) was added to the CMAGI or MAGI cells, followed by the virus inocula; and 24 hours later, an inhibitor of infection and cell-cell fusion (e.g., T20) was added to prevent secondary rounds of HIV infection and cell-cell virus spread. The cells were cultured for 2 more days, and then fixed and stained with the X-gal substrate to detect HIV-infected cells. The number of infected cells for each control and peptide dilution was determined with the CCD-imager, and then the IC50 and IC90 were calculated (expressed in μg/ml).\nIn this first example of antiviral potency, two clinical isolates of HIV were obtained from the same HIV-infected individual.\nUsing the methods taught in Example 1 herein, additional conjugates were produced by varying the polymer, the terminus of the synthetic peptide which is operably bound to polymer, and the reactive functionality used for operably binding synthetic peptide to polymer. Two molecules of synthetic peptide (e.g. SEQ ID NO:4) were operably bound to polymer."}, "[1]": {"test": "Bioavailability (circulating half-life) in cannulated mice, plasma fluorescence HPLC", "format": "in vivo", "settings": "mouse, 10 mg/kg", "protocol": "It is important to note that standard animal model for determining bioavailability has been correlated with the bioavailability of synthetic peptide in vivo in humans (as described in more detail in U.S. Pat. No. 6,258,782). […] A sample of blood was removed at predetermined time intervals (0, 15, 30 min and 1, 2, 4, 6, and 8 hours) and added to collection tubes containing anticoagulant (EDTA). Plasma was harvested from each of the collection tubes, and then subjected to analysis by fluorescence high pressure liquid chromatography (HPLC). In addition to sample dilutions, serial dilutions of dosing solution were performed in buffer as well as in plasma, and used to generate a standard curve relating peak area to known concentration of peptide. This curve was then used to calculate concentration of peptide in plasma taking into account all dilutions performed and quantity injected onto column."}, "HIV-1 T20R-B": {"test_system": "HIV-1 T20R-B", "format": "cell-based", "settings": "virus HIV-1 T20R-B", "source_text": "as §4"}, "HIV": {"test_system": "HIV", "settings": "typical range in words; cited from earlier work"}, "IIIB/CEM4": {"test_system": "IIIB/CEM4", "format": "cell-based, HIV", "settings": "virus IIIB/CEM4", "source_text": "as §1, §2\n(§5) With reference to Table 4, IC50 and IC90 are expressed in μg/ml."}, "SIM/CEM4": {"test_system": "SIM/CEM4", "format": "cell-based, HIV", "settings": "virus SIM/CEM4", "source_text": "as §1, §2, §5"}, "3′GIV/CEM4": {"test_system": "3′GIV/CEM4", "format": "cell-based, HIV", "settings": "virus 3′GIV/CEM4", "source_text": "as §1, §2, §5"}, "HIV-1 T20S": {"test_system": "HIV-1 T20S", "format": "cell-based", "settings": "T20-sensitive clinical isolate, Table 2", "source_text": "as §1, §2\nIn this first example of antiviral potency, two clinical isolates of HIV were obtained from the same HIV-infected individual. A first isolate, hereby designated “HIV-1 T20S” for ease of description, was sensitive to the antiviral effect of T20 (SEQ ID NO:4) both in vitro and in vivo. […] The results, with the IC50 expressed in ng/ml, are illustrated in Table 2.\nUsing the methods taught in Example 1 herein, additional conjugates were produced by varying the polymer, the terminus of the synthetic peptide which is operably bound to polymer, and the reactive functionality used for operably binding synthetic peptide to polymer. Two molecules of synthetic peptide (e.g. SEQ ID NO:4) were operably bound to polymer. Such conjugates were then tested for antiviral activity against HIV isolates IIIB, and HIV-1 T20S & HIV-1 T20R (see Table 2 for HIV resistant strains), with the antiviral activity (IC50) expressed in μg/ml. The results for the various conjugates (Table 5, A-Q), terminus of synthetic peptide used for operably binding polymer (Table 5, C-terminus denoted as “C”, N-terminus denoted as “N”) or if an internal lysine was used (Table 5, “Lys 18”, signifying lysine as amino acid residue 18 in the amino acid sequence of the synthetic peptide), antiviral activity (IC50) against HIV-1 strain IIIB (Table 5, “IIIB”), antiviral activity (IC50) against HIV-1 T20S (Table 5, “T20S”) and antiviral activity (IC50) against HIV-1 T20R (Table 5, “T20R”), are illustrated in Table 5."}}, "data": [{"substance": "enfuvirtide", "values": [{"measurement": "IC50", "setting": "HIV-1 T20S-C", "value": 0.006, "unit": "µg/mL"}, {"measurement": "IC90", "setting": "HIV-1 T20S-C", "value": 0.073, "unit": "µg/mL"}, {"measurement": "IC50", "setting": "HIV-1 T20S-A", "value": 0.006, "unit": "µg/mL"}, {"measurement": "IC90", "setting": "HIV-1 T20S-A", "value": 0.078, "unit": "µg/mL"}, {"measurement": "IC50", "setting": "HIV-1 T20S-D", "value": 0.018, "unit": "µg/mL"}, {"measurement": "IC90", "setting": "HIV-1 T20S-D", "value": 0.208, "unit": "µg/mL"}, {"measurement": "IC50", "setting": "HIV-1 T20R-A", "value": ">5", "unit": "µg/mL"}, {"measurement": "IC90", "setting": "HIV-1 T20R-A", "value": ">5", "unit": "µg/mL"}, {"measurement": "IC50", "setting": "HIV-1 T20S-B", "value": 0.029, "unit": "µg/mL"}, {"measurement": "IC90", "setting": "HIV-1 T20S-B", "value": 0.117, "unit": "µg/mL"}, {"measurement": "IC50", "setting": "HIV-1 T20R-D", "value": 2.039, "unit": "µg/mL"}, {"measurement": "IC90", "setting": "HIV-1 T20R-D", "value": ">5", "unit": "µg/mL"}, {"measurement": "IC50", "setting": "HIV-1 T20R-C", "value": 1.544, "unit": "µg/mL"}, {"measurement": "IC90", "setting": "HIV-1 T20R-C", "value": 6.285, "unit": "µg/mL"}, {"measurement": "HIV-1 T20R: IC50", "setting": "HIV-1 T20R", "value": "1,211 ng/ml"}, {"measurement": "half-life", "setting": "[1]; cannulated mice, intravenous, read-out: t½ (converted)", "value": 1.6, "unit": "h"}, {"measurement": "AUC", "setting": "[1]; iv", "value": 158, "unit": "µg·h/mL"}, {"measurement": "IC50", "setting": "HIV-1 T20R-B", "value": 1.898, "unit": "µg/mL"}, {"measurement": "IC90", "setting": "HIV-1 T20R-B", "value": 7.179, "unit": "µg/mL"}, {"measurement": "50% effective concentration values (EC50), blocked infection of T cells", "setting": "HIV", "value": "in the ng/ml range"}, {"measurement": "IC50", "setting": "IIIB/CEM4", "value": 0.007, "unit": "µg/mL"}, {"measurement": "IC90", "setting": "IIIB/CEM4", "value": 0.052, "unit": "µg/mL"}, {"measurement": "IC50", "setting": "SIM/CEM4", "value": 0.584, "unit": "µg/mL"}, {"measurement": "IC90", "setting": "SIM/CEM4", "value": 3.398, "unit": "µg/mL"}, {"measurement": "IC50", "setting": "3′GIV/CEM4", "value": 0.008, "unit": "µg/mL"}, {"measurement": "IC90", "setting": "3′GIV/CEM4", "value": 0.050, "unit": "µg/mL"}, {"measurement": "HIV-1 T20S: IC50", "setting": "HIV-1 T20S", "value": 0.01, "unit": "µg/mL"}]}]}
